Test results from ChEMBL document CHEMBL3885881, “DrugMatrix”.

Species: Rattus norvegicus
Experiment: DrugMatrix - Regimen: Daily Repeat
Format: toxicity, organism-based, Sprague-Dawley
Set-up: regimen Daily Repeat, gender Male, age 6-8 weeks
Settings: in vivo, sc, route mini-PUMP - SUBCUTANEOUS, vehicle 100 % SALINE; for ABSOLUTE BASOPHIL / ABSOLUTE EOSINOPHIL / ABSOLUTE LYMPHOCYTE / ABSOLUTE MONOCYTE / ABSOLUTE SEGMENTED NEUTROPHIL / BASOPHIL / EOSINOPHIL / ERYTHROCYTE COUNT / HEMOGLOBIN / LEUKOCYTE COUNT / LYMPHOCYTE / MEAN CORPUSCULAR HEMOGLOBIN / MEAN CORPUSCULAR HEMOGLOBIN CONCENTRATION / MEAN CORPUSCULAR VOLUME / NUCLEATED RED BLOOD CELLS / PLATELET COUNT: tissue Blood; for ALANINE AMINOTRANSFERASE / ALBUMIN / ALKALINE PHOSPHATASE / ASPARTATE AMINOTRANSFERASE / BLOOD UREA NITROGEN / CARBON DIOXIDE / CHLORIDE / CHOLESTEROL / CREATININE / LACTATE DEHYDROGENASE / LIPASE / PHOSPHORUS / POTASSIUM / SODIUM / TOTAL BILIRUBIN / TOTAL PROTEIN: tissue Plasma
[1] = 0 mg/kg, 72 h, dose level Control, time 3 day
[2] = 0 mg/kg, 120 h, dose level Control, time 5 day
[3] = 0 mg/kg, […], dose level Control, time 14 day
[4] = […], 72 h, dose 0.77 mg/Kg, dose level High, time 3 day
[5] = […], 120 h, dose 0.77 mg/Kg, dose level High, time 5 day

CNCC(O)c1ccc(O)c(O)c1 (configuration not stated) [RACEPINEPHRINE]
ABSOLUTE BASOPHIL [1]: 0 CELLS/uL
ABSOLUTE EOSINOPHIL [1]: 77.17 CELLS/uL
ABSOLUTE LYMPHOCYTE [1]: 14293.83 CELLS/uL
ABSOLUTE MONOCYTE [1]: 354 CELLS/uL
ABSOLUTE SEGMENTED NEUTROPHIL [1]: 1658.33 CELLS/uL
BASOPHIL [1]: 0%
EOSINOPHIL [1]: 0.5%
ERYTHROCYTE COUNT [1]: 6.27 x10E6/uL
HEMOGLOBIN [1]: 13.4 G/DL
LEUKOCYTE COUNT [1]: 16.38 x10E3/uL
LYMPHOCYTE [1]: 87.17%
MEAN CORPUSCULAR HEMOGLOBIN [1]: 21.42 pg
MEAN CORPUSCULAR HEMOGLOBIN CONCENTRATION [1]: 36.27 G/DL
MEAN CORPUSCULAR VOLUME [1]: 59.03 fL
NUCLEATED RED BLOOD CELLS [1]: 0 /100WBC
PLATELET COUNT [1]: 904.67 x10E3/uL
ALANINE AMINOTRANSFERASE [1]: 48.33 u/L
ALBUMIN [1]: 3.82 G/DL
ALKALINE PHOSPHATASE [1]: 282.33 u/L
ASPARTATE AMINOTRANSFERASE [1]: 86.83 u/L
BLOOD UREA NITROGEN [1]: 20.17 mg/dL
CARBON DIOXIDE [1]: 34.67 mmol/L
CHLORIDE [1]: 102 MEQ/L
CHOLESTEROL [1]: 71.5 mg/dL
CREATININE [1]: 0.2 mg/dL
LACTATE DEHYDROGENASE [1]: 159 u/L
LIPASE [1]: 9 u/L
PHOSPHORUS [1]: 10.12 mg/dL
POTASSIUM [1]: 5.92 MEQ/L
SODIUM [1]: 147.8 MEQ/L
TOTAL BILIRUBIN [1]: 0.2 mg/dL
TOTAL PROTEIN [1]: 6.05 G/DL
ABSOLUTE BASOPHIL [2]: 0 CELLS/uL
ABSOLUTE EOSINOPHIL [2]: 0 CELLS/uL
ABSOLUTE LYMPHOCYTE [2]: 14257.33 CELLS/uL
ABSOLUTE MONOCYTE [2]: 326 CELLS/uL
ABSOLUTE SEGMENTED NEUTROPHIL [2]: 3216.67 CELLS/uL
BASOPHIL [2]: 0%
EOSINOPHIL [2]: 0%
ERYTHROCYTE COUNT [2]: 6.11 x10E6/uL
HEMOGLOBIN [2]: 13.18 G/DL
LEUKOCYTE COUNT [2]: 17.8 x10E3/uL
LYMPHOCYTE [2]: 80.5%
MEAN CORPUSCULAR HEMOGLOBIN [2]: 21.62 pg
MEAN CORPUSCULAR HEMOGLOBIN CONCENTRATION [2]: 36.42 G/DL
MEAN CORPUSCULAR VOLUME [2]: 59.37 fL
NUCLEATED RED BLOOD CELLS [2]: 0 /100WBC
PLATELET COUNT [2]: 1311 x10E3/uL
ALANINE AMINOTRANSFERASE [2]: 47 u/L
ALBUMIN [2]: 3.83 G/DL
ALKALINE PHOSPHATASE [2]: 260.33 u/L
ASPARTATE AMINOTRANSFERASE [2]: 76.17 u/L
BLOOD UREA NITROGEN [2]: 14.67 mg/dL
CARBON DIOXIDE [2]: 31.33 mmol/L
CHLORIDE [2]: 101.17 MEQ/L
CHOLESTEROL [2]: 75 mg/dL
LACTATE DEHYDROGENASE [2]: 147.33 u/L
LIPASE [2]: 9.33 u/L
PHOSPHORUS [2]: 10.97 mg/dL
POTASSIUM [2]: 6 MEQ/L
SODIUM [2]: 145.52 MEQ/L
TOTAL PROTEIN [2]: 5.83 G/DL
ABSOLUTE BASOPHIL [3]: 0 CELLS/uL
ABSOLUTE EOSINOPHIL [3]: 64.5 CELLS/uL
ABSOLUTE LYMPHOCYTE [3]: 12507.83 CELLS/uL
ABSOLUTE MONOCYTE [3]: 380.33 CELLS/uL
ABSOLUTE SEGMENTED NEUTROPHIL [3]: 2414 CELLS/uL
BASOPHIL [3]: 0%
EOSINOPHIL [3]: 0.5%
ERYTHROCYTE COUNT [3]: 6.1 x10E6/uL
HEMOGLOBIN [3]: 12.88 G/DL
LEUKOCYTE COUNT [3]: 15.37 x10E3/uL
LYMPHOCYTE [3]: 80.83%
MEAN CORPUSCULAR HEMOGLOBIN [3]: 21.18 pg
MEAN CORPUSCULAR HEMOGLOBIN CONCENTRATION [3]: 36.43 G/DL
MEAN CORPUSCULAR VOLUME [3]: 58.17 fL
NUCLEATED RED BLOOD CELLS [3]: 0.17 /100WBC
PLATELET COUNT [3]: 1016 x10E3/uL
ALANINE AMINOTRANSFERASE [3]: 53.33 u/L
ALBUMIN [3]: 3.93 G/DL
ALKALINE PHOSPHATASE [3]: 319.83 u/L
ASPARTATE AMINOTRANSFERASE [3]: 84 u/L
BLOOD UREA NITROGEN [3]: 15.5 mg/dL
CARBON DIOXIDE [3]: 34 mmol/L
CHLORIDE [3]: 101.83 MEQ/L
CHOLESTEROL [3]: 57 mg/dL
CREATININE [3]: 0.21 mg/dL
LACTATE DEHYDROGENASE [3]: 104.67 u/L
LIPASE [3]: 9.17 u/L
PHOSPHORUS [3]: 11.12 mg/dL
POTASSIUM [3]: 5.81 MEQ/L
SODIUM [3]: 144.85 MEQ/L
TOTAL BILIRUBIN [3]: 0.18 mg/dL
TOTAL PROTEIN [3]: 5.92 G/DL
ABSOLUTE BASOPHIL [4]: 0 CELLS/uL
ABSOLUTE EOSINOPHIL [4]: 65.33 CELLS/uL
ABSOLUTE LYMPHOCYTE [4]: 15348.67 CELLS/uL
ABSOLUTE MONOCYTE [4]: 375.67 CELLS/uL
ABSOLUTE SEGMENTED NEUTROPHIL [4]: 2177 CELLS/uL
BASOPHIL [4]: 0%
ERYTHROCYTE COUNT [4]: 6.29 x10E6/uL
HEMOGLOBIN [4]: 13.53 G/DL
LEUKOCYTE COUNT [4]: 17.97 x10E3/uL
MEAN CORPUSCULAR HEMOGLOBIN [4]: 21.53 pg
MEAN CORPUSCULAR HEMOGLOBIN CONCENTRATION [4]: 36.13 G/DL
MEAN CORPUSCULAR VOLUME [4]: 59.7 fL
NUCLEATED RED BLOOD CELLS [4]: 0 /100WBC
PLATELET COUNT [4]: 1245.67 x10E3/uL
ALANINE AMINOTRANSFERASE [4]: 52.67 u/L
ALBUMIN [4]: 4 G/DL
ALKALINE PHOSPHATASE [4]: 340.67 u/L
ASPARTATE AMINOTRANSFERASE [4]: 85 u/L
BLOOD UREA NITROGEN [4]: 16.33 mg/dL
CARBON DIOXIDE [4]: 25.67 mmol/L
CHLORIDE [4]: 101 MEQ/L
CHOLESTEROL [4]: 83.33 mg/dL
LACTATE DEHYDROGENASE [4]: 441.33 u/L
LIPASE [4]: 9.67 u/L
PHOSPHORUS [4]: 12.23 mg/dL
POTASSIUM [4]: 6.83 MEQ/L
SODIUM [4]: 145.53 MEQ/L
TOTAL BILIRUBIN [4]: 0.13 mg/dL
TOTAL PROTEIN [4]: 6.3 G/DL
ABSOLUTE BASOPHIL [5]: 0 CELLS/uL
ABSOLUTE EOSINOPHIL [5]: 0 CELLS/uL
ABSOLUTE LYMPHOCYTE [5]: 14606 CELLS/uL
ABSOLUTE MONOCYTE [5]: 577.33 CELLS/uL
ABSOLUTE SEGMENTED NEUTROPHIL [5]: 4283.33 CELLS/uL
BASOPHIL [5]: 0%
EOSINOPHIL [5]: 0%
ERYTHROCYTE COUNT [5]: 6.1 x10E6/uL
HEMOGLOBIN [5]: 13.07 G/DL
LEUKOCYTE COUNT [5]: 19.47 x10E3/uL
LYMPHOCYTE [5]: 75%
MEAN CORPUSCULAR HEMOGLOBIN [5]: 21.43 pg
MEAN CORPUSCULAR HEMOGLOBIN CONCENTRATION [5]: 36.87 G/DL
MEAN CORPUSCULAR VOLUME [5]: 58.1 fL
NUCLEATED RED BLOOD CELLS [5]: 0 /100WBC
PLATELET COUNT [5]: 1295.33 x10E3/uL
ALANINE AMINOTRANSFERASE [5]: 52.33 u/L
ALBUMIN [5]: 3.83 G/DL
ALKALINE PHOSPHATASE [5]: 328 u/L
ASPARTATE AMINOTRANSFERASE [5]: 85.67 u/L
CHOLESTEROL [5]: 64.67 mg/dL
CREATININE [5]: 0.15 mg/dL
LACTATE DEHYDROGENASE [5]: 386.33 u/L
LIPASE [5]: 9 u/L
PHOSPHORUS [5]: 12.27 mg/dL
POTASSIUM [5]: 6.8 MEQ/L
SODIUM [5]: 147.2 MEQ/L
TOTAL BILIRUBIN [5]: 0.1 mg/dL
TOTAL PROTEIN [5]: 5.9 G/DL
